# Data published in ChEMBL document CHEMBL1145525, “Discovery of antiandrogen activity of nonsteroidal scaffolds of marketed drugs” (Proc Natl Acad Sci U S A, 2007).
# pIC50, pKi: −log10 of the molar value. Calls of active or inactive are those of the source. The rule behind the calls is not given here.
# Tests used:
# [1] = biological target: D(2) dopamine receptor (Homo sapiens) (UniProt P14416); test: Displacement of [3H]spiperone from human dopamine D2L receptor expressed in CHO FlpIn cells upto 1 uM; format: cell-based
# D(2) dopamine receptor (Homo sapiens), sequence (P14416 whole entry): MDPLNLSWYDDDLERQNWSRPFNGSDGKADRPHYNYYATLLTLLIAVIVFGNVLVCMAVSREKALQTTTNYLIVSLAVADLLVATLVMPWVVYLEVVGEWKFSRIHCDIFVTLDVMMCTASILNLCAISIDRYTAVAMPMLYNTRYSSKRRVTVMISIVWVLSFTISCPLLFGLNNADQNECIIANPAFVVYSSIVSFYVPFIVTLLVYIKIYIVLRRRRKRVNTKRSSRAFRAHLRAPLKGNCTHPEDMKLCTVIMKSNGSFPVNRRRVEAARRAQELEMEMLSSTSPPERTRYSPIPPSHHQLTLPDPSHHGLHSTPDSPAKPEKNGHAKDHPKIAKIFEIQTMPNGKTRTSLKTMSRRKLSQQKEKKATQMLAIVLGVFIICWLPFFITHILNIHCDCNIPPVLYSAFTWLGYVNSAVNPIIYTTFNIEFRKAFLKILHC
# HeLa = test: Effect on translocation of androgen receptor from cytoplasm to nucleus in human HeLa cells at 1 uM in presence of dihydrotestosterone; format: functional
# LNCaP [2] = test: Increase in prostate specific antigen expression level in human LNCaP cells at 1 uM; format: functional, cell-based
# LNCaP [3] = test: Reduction of prostate specific antigen expression level in human LNCaP cells at 10 uM; format: functional; parameters: scale not given: the % may be the effect or the level left
# [4] = biological target: 5-hydroxytryptamine receptor 2A (Homo sapiens) (UniProt P28223); test: Displacement of [3H]ketanserin from human dopamine 5HT2A receptor expressed in CHO-K1 cells upto 1 uM; format: cell-based
# 5-hydroxytryptamine receptor 2A (Homo sapiens), sequence (P28223 whole entry): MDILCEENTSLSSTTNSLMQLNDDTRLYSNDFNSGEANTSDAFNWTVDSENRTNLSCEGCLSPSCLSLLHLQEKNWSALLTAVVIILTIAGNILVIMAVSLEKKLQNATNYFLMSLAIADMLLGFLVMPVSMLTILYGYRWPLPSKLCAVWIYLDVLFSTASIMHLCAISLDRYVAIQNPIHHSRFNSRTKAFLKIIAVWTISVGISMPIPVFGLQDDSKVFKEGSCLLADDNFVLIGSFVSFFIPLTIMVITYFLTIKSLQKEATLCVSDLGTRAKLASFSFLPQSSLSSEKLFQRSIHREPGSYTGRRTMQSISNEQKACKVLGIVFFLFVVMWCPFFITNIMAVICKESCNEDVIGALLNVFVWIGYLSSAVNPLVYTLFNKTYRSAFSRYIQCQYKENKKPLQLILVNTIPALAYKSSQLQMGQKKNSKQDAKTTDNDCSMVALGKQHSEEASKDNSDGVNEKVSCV
# [5] = biological target: T1, 5-hydroxytryptamine receptor 2C (Homo sapiens) (UniProt P28335); test: Displacement of [3H]mesulergine from human dopamine 5HT2C receptor expressed in CHO-K1 cells upto 1 uM; format: cell-based
# T1 sequence (whole entry): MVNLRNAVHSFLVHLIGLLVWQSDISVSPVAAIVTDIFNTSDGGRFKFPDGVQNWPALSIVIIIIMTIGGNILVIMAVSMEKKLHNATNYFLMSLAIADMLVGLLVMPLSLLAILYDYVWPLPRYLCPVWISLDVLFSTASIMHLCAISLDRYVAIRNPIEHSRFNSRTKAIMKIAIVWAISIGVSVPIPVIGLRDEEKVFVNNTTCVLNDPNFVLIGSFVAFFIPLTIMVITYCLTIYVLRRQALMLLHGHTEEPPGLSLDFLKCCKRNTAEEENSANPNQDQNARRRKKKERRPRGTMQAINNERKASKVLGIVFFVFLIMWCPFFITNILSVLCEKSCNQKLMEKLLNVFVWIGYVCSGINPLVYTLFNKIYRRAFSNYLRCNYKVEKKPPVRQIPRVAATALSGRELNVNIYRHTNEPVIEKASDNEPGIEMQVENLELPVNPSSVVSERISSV
# Androgen receptor [6] = biological target: T2, Androgen receptor (Homo sapiens, UniProt P10275); test: Inhibition of wild type androgen receptor expressed in CV1 cells assessed as dihydrotestosterone-stimulated transactivation by CAT reporter gene assay; format: cell-based, CV-1
# T2 sequence (P10275 whole entry): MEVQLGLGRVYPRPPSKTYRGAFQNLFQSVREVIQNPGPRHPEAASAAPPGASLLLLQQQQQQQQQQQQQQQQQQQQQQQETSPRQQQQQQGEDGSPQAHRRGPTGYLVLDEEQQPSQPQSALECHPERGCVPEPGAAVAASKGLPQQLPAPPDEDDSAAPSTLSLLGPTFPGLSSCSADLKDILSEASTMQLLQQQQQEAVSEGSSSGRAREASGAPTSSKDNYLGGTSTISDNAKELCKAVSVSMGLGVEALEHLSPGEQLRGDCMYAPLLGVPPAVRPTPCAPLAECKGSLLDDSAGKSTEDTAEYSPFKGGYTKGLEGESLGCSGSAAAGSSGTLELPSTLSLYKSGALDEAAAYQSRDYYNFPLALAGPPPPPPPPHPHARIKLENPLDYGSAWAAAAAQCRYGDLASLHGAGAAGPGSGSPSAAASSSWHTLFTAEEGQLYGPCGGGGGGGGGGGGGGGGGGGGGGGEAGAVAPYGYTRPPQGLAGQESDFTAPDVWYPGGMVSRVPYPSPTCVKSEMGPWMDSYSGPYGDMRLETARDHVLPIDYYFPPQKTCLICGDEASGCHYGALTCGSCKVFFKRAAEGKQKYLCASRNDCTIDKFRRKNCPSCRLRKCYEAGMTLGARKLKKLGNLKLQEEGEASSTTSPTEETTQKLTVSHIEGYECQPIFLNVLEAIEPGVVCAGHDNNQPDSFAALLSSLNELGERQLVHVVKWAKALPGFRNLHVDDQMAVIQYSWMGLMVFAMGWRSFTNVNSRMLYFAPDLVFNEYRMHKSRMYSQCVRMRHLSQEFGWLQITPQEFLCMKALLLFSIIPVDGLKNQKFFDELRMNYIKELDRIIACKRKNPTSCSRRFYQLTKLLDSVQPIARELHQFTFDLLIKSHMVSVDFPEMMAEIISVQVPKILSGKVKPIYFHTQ
# PC-3 = test: Cytotoxicity against human PC3 cells upto 10 uM by SRB assay; format: functional, cell-based
# Androgen receptor [7] = biological target: T3, Androgen receptor (Rattus norvegicus, UniProt P15207); test: Displacement of [3H]mibolerone from rat androgen receptor
# T3 sequence (P15207 whole entry): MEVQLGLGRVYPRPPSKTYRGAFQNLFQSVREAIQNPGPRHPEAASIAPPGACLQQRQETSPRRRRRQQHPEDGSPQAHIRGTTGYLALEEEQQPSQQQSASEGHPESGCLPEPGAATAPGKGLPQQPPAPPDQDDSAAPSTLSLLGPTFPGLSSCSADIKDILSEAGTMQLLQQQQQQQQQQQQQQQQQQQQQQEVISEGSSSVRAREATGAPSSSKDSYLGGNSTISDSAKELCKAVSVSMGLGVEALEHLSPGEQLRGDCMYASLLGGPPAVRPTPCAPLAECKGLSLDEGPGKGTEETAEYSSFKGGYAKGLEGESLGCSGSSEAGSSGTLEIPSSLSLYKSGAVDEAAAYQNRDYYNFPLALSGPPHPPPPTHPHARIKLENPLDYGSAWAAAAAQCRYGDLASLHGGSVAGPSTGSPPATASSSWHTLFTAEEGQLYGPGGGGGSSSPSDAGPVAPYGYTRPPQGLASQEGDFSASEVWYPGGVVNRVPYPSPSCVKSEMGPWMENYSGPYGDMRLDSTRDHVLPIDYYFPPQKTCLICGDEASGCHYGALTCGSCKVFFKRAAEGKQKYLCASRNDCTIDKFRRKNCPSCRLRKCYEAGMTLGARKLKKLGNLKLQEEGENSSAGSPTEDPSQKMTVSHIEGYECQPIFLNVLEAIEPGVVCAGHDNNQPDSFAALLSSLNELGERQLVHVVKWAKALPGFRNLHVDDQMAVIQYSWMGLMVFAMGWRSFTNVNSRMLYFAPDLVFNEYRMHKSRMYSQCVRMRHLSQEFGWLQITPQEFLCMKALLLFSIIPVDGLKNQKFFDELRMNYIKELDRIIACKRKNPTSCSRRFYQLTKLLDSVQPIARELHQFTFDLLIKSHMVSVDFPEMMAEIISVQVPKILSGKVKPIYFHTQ
Structure (SMILES),Activity [1],Activity (HeLa),Activity (LNCaP [2]),Activity (LNCaP [3]),Activity [4],Activity [5],pIC50 (Androgen receptor [6]; read-out: IC50),IC50 (Androgen receptor [6]; read-out: Log IC50 (converted)),Activity (PC-3),pKi (Androgen receptor [7])
O=C(CN1c2ccccc2Sc2ccc(C(F)(F)F)cc21)c1cccc2ccccc12,inactive,>90%,Active,>80%,inactive,inactive,6.60,251 nM,inactive,–
N#Cc1ccc2c(c1)N(CCCN1CCC(O)CC1)c1ccccc1S2 [PERICIAZINE],–,–,–,–,–,–,–,–,–,5.52
